Measurements reported in patent US12453708B2, “Aminonaphthoquinone compounds for treatment and/or prevention of fibrosis diseases” (CALGENT BIOTECHNOLOGY CO., LTD., priority 2015, dated 2025).

Test system: BLM-induced lung fibrosis in mice
Test: Bleomycin (BLM)-induced lung fibrosis mice model
Type: in vivo, C57BL/6JNarl mice
Conditions: BLM mice; for fibrosis score, Mean ± SEM: H&E histology day 39
Method: FIGS. 8 (A) and (B) show the effect of L056 effect on fibrosis score of BLM-induced lung fibrosis in mice. C57BL/6 mice (8 weeks) were treated with bleomycin (BLM, 0.05 U/50 μl) or PBS (50 μl) by endotracheal administration. […] On day 39, the mice were sacrificed and, the histologic analysis of lung tissue was performed by hematoxylin-eosin (H&E) staining (original magnification, x100). […] (A), Histology fibrosis score plot; (B), H&E staining plot.
FIG. 9 (A) to (D) show the inhibitory effects on pro-fibrogenic mediators, collagen, CTGF, fibronectin and […], respectively. (A), H&E staining plot for collagen; (B), H&E staining plot for CTGF; (C), H&E staining plot for fibronectin; (D), H&E staining plot for α-SMA.
C57BL/6JNarl mice (8 weeks) were treated with bleomycin (BLM, 0.05 U/50 μl) or PBS (50 μl) by endotracheal administration. […] On day 39, the mice were sacrificed, and the histologic analysis of lung tissue was performed by hematoxylin-eosin (H&E) staining (original magnification, x100).

[1] = 200 mg (mg/kg/day, q.d., oral, days 10 to 38)
[2] = 60 mg (oral, q.d., days 10 to 38)

## Cc1ccc(=O)n(-c2ccccc2)c1 [Esbriet, pirfenidone, reference compound]
[1]
  Efficacy % (reduction of fibrosis score): 34.08%
  fibrosis score, Mean ± SEM: 3.91 ± 0.21

## COC(=O)c1ccc2c(c1)NC(=O)/C2=C(\Nc1ccc(N(C)C(=O)CN2CCN(C)CC2)cc1)c1ccccc1 [OFEV, nintedanib, reference compound]
[2]
  Efficacy % (reduction of fibrosis score): 41.66%
  fibrosis score, Mean ± SEM: 3.62 ± 0.30
